From US20190136321A1, “USE OF TRANSLATIONAL PROFILING TO IDENTIFY TARGET MOLECULES FOR THERAPEUTIC TREATMENT” (The Regents of The University of California, priority 2013, published 2019)

Test system: SW620 cells
Assay: Ribosome profiling of SW620 cells (transcription, translational rate, translational efficiency)
Type: cell-based, human
Conditions: 8 hours
Experimental: SW620 human colon cancer cells were cultured in DMEM media supplemented with penicillin G (100 U/ml), streptomycin (100 μg/ml), and 10% FBS in a humidified atmosphere of 5% CO2 maintained at 37° C.
SW620 cells (ATCC, passage 12) were seeded at about 75% confluence 24 hrs prior to drug treatment. […] About 6×10^6 cells/10 cm plate and about 1×10^6 cells/well of a 6-well plate were harvested for ribosome profiling and Western blot analysis, respectively, following drug treatment.

For `CC(=O)Nc1cccc(-n2c(=O)n(C3CC3)c(=O)c3c(Nc4ccc(I)cc4F)n(C)c(=O)c(C)c32)c1` [GSK212], the “Profile TE” value (gene ARID5A, 250 nM) was −0.4 log2 MEKi/DMSO, the Profile rna (gene ARID5A, 250 nM) was −0.5 log2 MEKi/DMSO and the Profile rpf (gene ARID5A, 250 nM) was −0.9 log2 MEKi/DMSO. For the same compound, the “Profile TE” value (gene B4GALT6, 250 nM) was 0.0 log2 MEKi/DMSO, the Profile rna (gene B4GALT6, 250 nM) was 0.0 log2 MEKi/DMSO and the Profile rpf (gene B4GALT6, 250 nM) was −0.1 log2 MEKi/DMSO. For the same compound, the “Profile TE” value (gene BXDC2/BRIX1, 250 nM) was 0.2 log2 MEKi/DMSO, the Profile rna (gene BXDC2/BRIX1, 250 nM) was −1.1 log2 MEKi/DMSO and the Profile rpf (gene BXDC2/BRIX1, 250 nM) was −0.8 log2 MEKi/DMSO. The “Profile TE” value (gene BYSL, 250 nM) was 0.2 log2 MEKi/DMSO, the Profile rna (gene BYSL, 250 nM) was −0.8 log2 MEKi/DMSO and the Profile rpf (gene BYSL, 250 nM) was −0.6 log2 MEKi/DMSO. For the same compound, the “Profile TE” value (gene CCND1, 250 nM) was −0.3 log2 MEKi/DMSO, the Profile rna (gene CCND1, 250 nM) was −1.8 log2 MEKi/DMSO and the Profile rpf (gene CCND1, 250 nM) was −2.0 log2 MEKi/DMSO. For the same compound, the “Profile TE” value (gene CD3EAP, 250 nM) was −0.5 log2 MEKi/DMSO, the Profile rna (gene CD3EAP, 250 nM) was −0.6 log2 MEKi/DMSO and the Profile rpf (gene CD3EAP, 250 nM) was −1.1 log2 MEKi/DMSO. The “Profile TE” value (gene CHSY1, 250 nM) was −0.7 log2 MEKi/DMSO, the Profile rna (gene CHSY1, 250 nM) was 0.0 log2 MEKi/DMSO and the Profile rpf (gene CHSY1, 250 nM) was −0.7 log2 MEKi/DMSO. The “Profile TE” value (gene DDX21, 250 nM) was −0.6 log2 MEKi/DMSO, the Profile rna (gene DDX21, 250 nM) was −0.3 log2 MEKi/DMSO and the Profile rpf (gene DDX21, 250 nM) was −1.0 log2 MEKi/DMSO. The “Profile TE” value (gene DUSP4, 250 nM) was −0.4 log2 MEKi/DMSO, the Profile rna (gene DUSP4, 250 nM) was −2.0 log2 MEKi/DMSO and the Profile rpf (gene DUSP4, 250 nM) was −2.4 log2 MEKi/DMSO. For the same compound, the “Profile TE” value (gene DUSP6, 250 nM) was −3.1 log2 MEKi/DMSO, the Profile rna (gene DUSP6, 250 nM) was −6.3 log2 MEKi/DMSO and the Profile rpf (gene DUSP6, 250 nM) was −9.3 log2 MEKi/DMSO. For the same compound, the “Profile TE” value (gene EGR1, 250 nM) was −3.1 log2 MEKi/DMSO, the Profile rna (gene EGR1, 250 nM) was −1.0 log2 MEKi/DMSO and the Profile rpf (gene EGR1, 250 nM) was −4.1 log2 MEKi/DMSO. The “Profile TE” value (gene ELOVL6, 250 nM) was 0.6 log2 MEKi/DMSO, the Profile rna (gene ELOVL6, 250 nM) was −1.4 log2 MEKi/DMSO and the Profile rpf (gene ELOVL6, 250 nM) was −0.8 log2 MEKi/DMSO. For the same compound, the Profile rna (gene ETV1, 250 nM) was −3.5 log2 MEKi/DMSO, the “Profile TE” value (gene ETV4, 250 nM) was −0.6 log2 MEKi/DMSO and the Profile rna (gene ETV4, 250 nM) was −2.2 log2 MEKi/DMSO. For the same compound, the Profile rpf (gene ETV4, 250 nM) was −2.8 log2 MEKi/DMSO, the “Profile TE” value (gene ETV5, 250 nM) was −3.0 log2 MEKi/DMSO and the Profile rna (gene ETV5, 250 nM) was −2.6 log2 MEKi/DMSO. The Profile rpf (gene ETV5, 250 nM) was −5.6 log2 MEKi/DMSO, the “Profile TE” value (gene FLJ10534/TSR1, 250 nM) was −0.6 log2 MEKi/DMSO and the Profile rna (gene FLJ10534/TSR1, 250 nM) was −0.3 log2 MEKi/DMSO. For the same compound, the Profile rpf (gene FLJ10534/TSR1, 250 nM) was −0.8 log2 MEKi/DMSO, the “Profile TE” value (gene FOS, 250 nM) was 0.2 log2 MEKi/DMSO and the Profile rna (gene FOS, 250 nM) was −2.9 log2 MEKi/DMSO. The Profile rpf (gene FOS, 250 nM) was −2.7 log2 MEKi/DMSO, the “Profile TE” value (gene FOSL1, 250 nM) was −0.5 log2 MEKi/DMSO and the Profile rna (gene FOSL1, 250 nM) was −3.6 log2 MEKi/DMSO. The Profile rpf (gene FOSL1, 250 nM) was −4.1 log2 MEKi/DMSO, the “Profile TE” value (gene GEMIN4, 250 nM) was −0.5 log2 MEKi/DMSO and the Profile rna (gene GEMIN4, 250 nM) was −0.1 log2 MEKi/DMSO. For the same compound, the Profile rpf (gene GEMIN4, 250 nM) was −0.6 log2 MEKi/DMSO, the “Profile TE” value (gene GNL3, 250 nM) was −0.2 log2 MEKi/DMSO and the Profile rna (gene GNL3, 250 nM) was −0.7 log2 MEKi/DMSO. For the same compound, the Profile rpf (gene GNL3, 250 nM) was −0.8 log2 MEKi/DMSO, the Profile rpf (gene GPR3, 250 nM) was −2.8 log2 MEKi/DMSO and the “Profile TE” value (gene GTPBP4, 250 nM) was −0.3 log2 MEKi/DMSO. For the same compound, the Profile rna (gene GTPBP4, 250 nM) was −0.4 log2 MEKi/DMSO, the Profile rpf (gene GTPBP4, 250 nM) was −0.7 log2 MEKi/DMSO and the “Profile TE” value (gene HMGA2, 250 nM) was 1.2 log2 MEKi/DMSO. The Profile rna (gene HMGA2, 250 nM) was −2.9 log2 MEKi/DMSO, the Profile rpf (gene HMGA2, 250 nM) was −1.7 log2 MEKi/DMSO and the “Profile TE” value (gene HSPC111/NOP16, 250 nM) was 0.6 log2 MEKi/DMSO. The Profile rna (gene HSPC111/NOP16, 250 nM) was −1.5 log2 MEKi/DMSO, the Profile rpf (gene HSPC111/NOP16, 250 nM) was −0.9 log2 MEKi/DMSO and the “Profile TE” value (gene IER3, 250 nM) was −0.1 log2 MEKi/DMSO. For the same compound, the Profile rna (gene IER3, 250 nM) was −2.2 log2 MEKi/DMSO, the Profile rpf (gene IER3, 250 nM) was −2.3 log2 MEKi/DMSO and the “Profile TE” value (gene IL8, 250 nM) was 2.4 log2 MEKi/DMSO. For the same compound, the Profile rna (gene IL8, 250 nM) was −5.6 log2 MEKi/DMSO and the Profile rpf (gene IL8, 250 nM) was −3.2 log2 MEKi/DMSO.
